Experimental data: patent publication US8592456B2 (4SC Discovery GmbH, priority 2011, dated 2013)

System: PBMC (T cell proliferation)
Assay: T cell proliferation assay, PHA-stimulated human PBMC (BrdU ELISA)
Type: cell-based
Details: Homo sapiens, 48 h, read-out: IC50 (Tcell proliferation)
Method in brief: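 BrdU ELISA readout of proliferation at 48 hours. Cells: human PBMC from healthy donors in 10% dialyzed FCS/RPMI1640, 1×10^5 per well, activated by 2 μg/ml phytohaemagglutinin in the presence of compound.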

`CC(=O)Nc1cccc(-n2ncc(-c3onc(-c4c(F)cccc4Cl)c3-c3nnc(C)s3)c2C(F)(F)F)c1` [IB-12, N-(3-(4-(3-(2-chloro-6-fluorophenyl)-4-(5-methyl-1,3,4-thiadiazol-2-yl)isoxazol-5-yl)-5-(trifluoromethyl)-1H-pyrazol-1-yl)phenyl)acetamide] gave an IC50 of 1000 to 10000 nM.

Same assay, conditions: PHA-stimulated human PBMC, 48 hours, BrdU; column D; activity classes 1-4; read-out: IC50 (Tcell proliferation)

First: Cc1nnc(-c2c(-c3c(F)cccc3Cl)noc2-c2cnn(-c3ccccn3)c2C(F)(F)F)s1 [IB-27, 3-(2-chloro-6-fluorophenyl)-4-(5-methyl-1,3,4-thiadiazol-2-yl)-5-(1-(pyridin-2-yl)-5-(trifluoromethyl)-1H-pyrazol-4-yl)isoxazole]
Second: Fc1cccc(-n2ncc(-c3onc(-c4c(F)cccc4Cl)c3-c3nnn[nH]3)c2C(F)(F)F)c1 [Example I-2, 3-(2-chloro-6-fluorophenyl)-5-(1-(3-fluorophenyl)-5-(trifluoromethyl)-1H-pyrazol-4-yl)-4-(1H-tetrazol-5-yl)isoxazole]
The IC50 of the first is lower: 10 to 100 nM for the first, 1000 to 10000 nM for the second. The first is the more potent here.

`Fc1cccc(-n2ncc(-c3onc(-c4c(F)cccc4Cl)c3-c3ccco3)c2C(F)(F)F)c1` [Example I-17, 3-(2-chloro-6-fluorophenyl)-5-(1-(3-fluorophenyl)-5-(trifluoromethyl)-1H-pyrazol-4-yl)-4-(furan-2-yl)isoxazole] and `Fc1cccc(Cl)c1-c1noc(-c2cnn(-c3cccc(Cl)c3)c2C(F)(F)F)c1-c1cnco1` [Example I-8, 3-(2-chloro-6-fluorophenyl)-5-(1-(3-chlorophenyl)-5-(trifluoromethyl)-1H-pyrazol-4-yl)-4-(oxazol-5-yl)isoxazole] cannot be ordered by IC50: less than 10 nM for the first, less than 10 nM for the second.

`Fc1cccc(Cl)c1-c1noc(-c2cnn(-c3ccncc3)c2C(F)(F)F)c1-c1cnco1` [IB-33, 3-(2-chloro-6-fluorophenyl)-4-(oxazol-5-yl)-5-(1-(pyridin-4-yl)-5-(trifluoromethyl)-1H-pyrazol-4-yl)isoxazole] and `CC(C)Cn1ncc(-c2onc(-c3c(F)cccc3Cl)c2-c2nnn[nH]2)c1C(F)(F)F` [Example I-1, 3-(2-chloro-6-fluorophenyl)-5-(1-isobutyl-5-(trifluoromethyl)-1H-pyrazol-4-yl)-4-(1H-tetrazol-5-yl)isoxazole] fall in the same range of IC50: 1000 to 10000 nM for the first, 1000 to 10000 nM for the second.

Same assay, conditions: human PBMC, 2 μg/ml PHA, 48 hours, BrdU; read-out: D: IC50 (Tcell proliferation)

First: CCOC(=O)c1c(-c2c(F)cccc2Cl)noc1-c1cnn(-c2ccccc2NC(C)=O)c1C(F)(F)F [Example B-1]
Second: COC(=O)c1c(-c2c(F)cccc2Cl)noc1-c1cnn(-c2ccccc2F)c1C(F)(F)F [Example 1, methyl 3-(2-chloro-6-fluorophenyl)-5-(1-(2-fluorophenyl)-5-(trifluoromethyl)-1H-pyrazol-4-yl)isoxazole-4-carboxylate]
The IC50 of the first is higher: 1000 to 10000 nM for the first, 10 to 100 nM for the second.

First: CNC(=O)c1c(-c2c(F)cccc2Cl)noc1-c1cnn(-c2ccc(F)cc2)c1C(F)(F)F [Example 55, 3-(2-chloro-6-fluorophenyl)-5-(1-(4-fluorophenyl)-5-(trifluoromethyl)-1H-pyrazol-4-yl)-N-methylisoxazole-4-carboxamide]
Second: COC(=O)c1c(-c2c(F)cccc2Cl)noc1-c1cnn(-c2ccc(F)cc2)c1C(F)(F)F [Example 3, methyl 3-(2-chloro-6-fluorophenyl)-5-(1-(4-fluorophenyl)-5-(trifluoromethyl)-1H-pyrazol-4-yl)isoxazole-4-carboxylate]
The IC50 of the first is higher: 100 to 1000 nM for the first, 10 to 100 nM for the second. The second is the more potent here.

`Fc1ccc(-n2ncc(-c3onc(-c4c(F)cccc4Cl)c3Br)c2C(F)(F)F)c(F)c1` [Example B-24, 4-bromo-3-(2-chloro-6-fluorophenyl)-5-(1-(2,4-difluorophenyl)-5-(trifluoromethyl)-1H-pyrazol-4-yl)isoxazole] and `Fc1ccccc1-n1ncc(-c2onc(-c3c(F)cccc3Cl)c2Br)c1C(F)(F)F` [Example B-26, 4-bromo-3-(2-chloro-6-fluorophenyl)-5-(1-(2-fluorophenyl)-5-(trifluoromethyl)-1H-pyrazol-4-yl)isoxazole] fall in the same range of IC50: 1000 to 10000 nM for the first, 1000 to 10000 nM for the second.

`CCOC(=O)c1c(-c2ccncc2F)noc1-c1cnn(-c2cccc(Cl)c2)c1C(F)(F)F` [Example B-4, ethyl 5-(1-(3-chlorophenyl)-5-(trifluoromethyl)-1H-pyrazol-4-yl)-3-(3-fluoropyridin-4-yl)isoxazole-4-carboxylate] and `CCOC(=O)c1c(-c2ccncc2F)noc1-c1cnn(-c2cccnc2)c1C(F)(F)F` [Example B-17, ethyl 3-(3-fluoropyridin-4-yl)-5-(1-(pyridin-3-yl)-5-(trifluoromethyl)-1H-pyrazol-4-yl)isoxazole-4-carboxylate] fall in the same range of IC50: 1000 to 10000 nM for the first, 1000 to 10000 nM for the second.

First: CCOC(=O)c1c(-c2c(Cl)cncc2Cl)noc1-c1cnn(-c2cccc(Cl)c2)c1C(F)(F)F [Example B-7, ethyl 5-(1-(3-chlorophenyl)-5-(trifluoromethyl)-1H-pyrazol-4-yl)-3-(3,5-dichloropyridin-4-yl)isoxazole-4-carboxylate]
Second: CCOC(=O)c1c(-c2c(Cl)cccc2Cl)noc1-c1cnn(-c2cccc(Cl)c2)c1C(F)(F)F [Example B-45, ethyl 5-(1-(3-chlorophenyl)-5-(trifluoromethyl)-1H-pyrazol-4-yl)-3-(2,6-dichlorophenyl)-isoxazole-4-carboxylate]
The IC50 of the first is higher: 1000 to 10000 nM for the first, less than 10 nM for the second. The second is the more potent here.

`COC(=O)c1c(-c2c(F)cccc2Cl)noc1-c1cnn(-c2ccccc2)c1C(F)(F)F` [Example 48, methyl 3-(2-chloro-6-fluorophenyl)-5-(1-phenyl-5-(trifluomethyl)1H-pyrazol-4-yl)isoxazole-4-carboxylate] and `COC(=O)c1c(-c2c(F)cccc2Cl)noc1-c1cnn(-c2cccnc2)c1C(F)(F)F` [Example B-67, methyl 3-(2-chloro-6-fluorophenyl)-5-(1-(pyridin-3-yl)-5-(trifluoromethyl)-1H-pyrazol-4-yl)isoxazole-4-carboxylate] fall in the same range of IC50: 10 to 100 nM for the first, 10 to 100 nM for the second.

Compared with `CC(C)NS(=O)(=O)c1cccc(-n2ncc(-c3onc(-c4c(F)cccc4Cl)c3C(=O)OC(C)C)c2C(F)(F)F)c1` [Example B-79, isopropyl 3-(2-chloro-6-fluorophenyl)-5-(1-(3-(N-isopropylsulfamoyl)phenyl)-5-(trifluoromethyl)-1H-pyrazol-4-yl)isoxazole-4-carboxylate], `CC(C)OC(=O)c1c(-c2c(F)cccc2Cl)noc1-c1cnn(-c2cccc(Cl)c2)c1C(F)(F)F` [Example B-31, isopropyl 3-(2-chloro-6-fluorophenyl)-5-(1-(3-chlorophenyl)-5-(trifluoromethyl)-1H-pyrazol-4-yl)isoxazole-4-carboxylate] is lower in IC50: 100 to 1000 nM for the first, less than 10 nM for the second. The second is the more potent here.

First: O=C(O)c1c(-c2c(F)cccc2Cl)noc1-c1cnn(Cc2ccccc2F)c1C(F)(F)F [Example B-86, 3-(2-chloro-6-fluorophenyl)-5-(1-(2-fluorobenzyl)-5-(trifluoromethyl)-1H-pyrazol-4-yl)isoxazole-4-carboxylic acid]
Second: CSC(=O)c1c(-c2c(F)cccc2Cl)noc1-c1cnn(-c2cccc(F)c2)c1C(F)(F)F [Example 128, S-methyl 3-(2-chloro-6-fluorophenyl)-5-(1-(3-fluorophenyl)-5-(trifluoromethyl)-1H-pyrazol-4-yl)isoxazole-4-carbothioate]
The IC50 of the first is higher: 1000 to 10000 nM for the first, less than 10 nM for the second.

Compared with `CON(C)C(=O)c1c(-c2c(F)cccc2Cl)noc1-c1cnn(-c2cccnc2)c1C(F)(F)F` [Example B-56, 3-(2-chloro-6-fluorophenyl)-N-methoxy-N-methyl-5-(1-(pyridin-3-yl)-5-(trifluoromethyl)-1H-pyrazol-4-yl)isoxazole-4-carboxamide], `CON(C)C(=O)c1c(-c2c(F)cccc2Cl)noc1-c1cnn(-c2cccc(F)c2)c1C(F)(F)F` [Example 135, 3-(2-chloro-6-fluorophenyl)-5-(1-(3-fluorophenyl)-5-(trifluoromethyl)-1H-pyrazol-4-yl)-N-methoxy-N-methylisoxazole-4-carboxamide] is lower in IC50: 1000 to 10000 nM for the first, 100 to 1000 nM for the second. The second is the more potent here.

Compared with `O=C(c1c(-c2c(F)cccc2Cl)noc1-c1cnn(-c2cccc(F)c2)c1C(F)(F)F)N1CCCO1` [Example 118, (3-(2-chloro-6-fluorophenyl)-5-(1-(3-fluorophenyl)-5-(trifluoromethyl)-1H-pyrazol-4-yl)isoxazol-4-yl)(isoxazolidin-2-yl)methanone], `Fc1ccc(-n2ncc(-c3onc(-c4c(F)cccc4Cl)c3Br)c2C(F)(F)F)cc1` [Example B-28, 4-bromo-3-(2-chloro-6-fluorophenyl)-5-(1-(4-fluorophenyl)-5-(trifluoromethyl)-1H-pyrazol-4-yl)isoxazole] is higher in IC50: 10 to 100 nM for the first, 100 to 1000 nM for the second.

`COC(=O)c1c(-c2c(F)cccc2Cl)noc1-c1cnn(-c2onc(-c3ccc(Cl)cc3)c2C(=O)OC)c1C(F)(F)F` [Example 131, methyl 3-(2-chloro-6-fluorophenyl)-5-{[1-(4-methoxycarbonyl-3-(4-chlorophenyl)isoxazol-5-yl)-5-trifluoromethyl-1H-pyrazol-4-yl]}-isoxazole-4-carboxylate] and `COC(=O)c1c(-c2c(F)cccc2Cl)noc1-c1cnn(-c2ccc(C(C)(C)C)cc2)c1C(F)(F)F` [Example 81, methyl 5-(1-(4-tert-butylphenyl)-5-(trifluoromethyl)-1H-pyrazol-4-yl)-3-(2-chloro-6-fluorophenyl)isoxazole-4-carboxylate] fall in the same range of IC50: 1000 to 10000 nM for the first, 1000 to 10000 nM for the second.

First: COC(=O)c1c(-c2c(F)cccc2Cl)noc1-c1cnn(-c2c(F)c(F)cc(F)c2F)c1C(F)(F)F [Example 47, methyl 3-(2-chloro-6-fluorophenyl)-5-(1-(2,3,5,6-tetrafluorophenyl)-5-(trifluoromethyl)-1H-pyrazol-4-yl)isoxale-4-carboxylate]
Second: CNC(=O)c1c(-c2c(F)cccc2Cl)noc1-c1cnn(-c2ccccn2)c1C(F)(F)F [Example B-93, 3-(2-chloro-6-fluorophenyl)-N-methyl-5-(1-(pyridin-2-yl)-5-(trifluoromethyl)-1H-pyrazol-4-yl)isoxazole-4-carboxamide]
The IC50 of the first is lower: 100 to 1000 nM for the first, 1000 to 10000 nM for the second.

Work on `COC(=O)c1c(-c2ccc(OC)cc2)noc1-c1cnn(-c2cccc(F)c2)c1C(F)(F)F` [Example 107, methyl 5-(1-(3-fluorophenyl)-5-(trifluoromethyl)-1H-pyrazol-4-yl)-3-(4-methoxyphenyl)isoxazole-4-carboxylate] yielded an IC50 of 1000 to 10000 nM.
